According to the supplement of paper PMC11208160:

Assay: recombinant UMI read abundance after kanamycin selection (control-corrected) (log10(CPM+1)); higher = more efficient recombination; extreme values may be limits of the assay; sequences stand for … in AGTGCAGAGAAAATCGGCCAGTTTTCTCTGCCTGCAGTCCGCATGCCGTGGGACCCCTTGGGTTCTAACCTGTTGCCTAGATTTATGCAGCGGACTGCCTTTCTCCCAAAGTGATAAACCGG…AGGTTGGTTTCACT; site = the 11-nt donor
Procedure, shortened: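 Pooled Escherichia coli screen of donor and donor-binding-loop pairs for the IS621 bridge recombinase. Each pair sits with a 12-nt UMI on a plasmid carrying a promoterless kanamycin gene. The library was co-electroporated with a target plasmid encoding a fixed target and T7-inducible recombinase, then plated with IPTG (0.07 mM) plus kanamycin, or unselected, each in two replicates. Recombinant UMIs were PCR-amplified across the donor–target junction and sequenced. Counts became CPM, averaged over replicates, scaled by control-derived factors and reported as log10(CPM+1).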
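Also: IS621 bridge recombinase in Escherichia coli cells against a fixed T5 target plasmid.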

| Sequence | recombinant UMI read abundance (log10) |
| --- | --- |
| GTAGGTGCATGGACCGGTTTTCCCGGTAATCCGTATTTGAC (site GTAGGTGCTGT) | 2.74 |
| GTAGGTGCATGGACCGGTTTTCCCGGTAATCCGTATTTGAC (site GTAGGTTCTGT) | 1.1 |
| GTAGTCGCATGGACCGGTTTTCCCGGTAATCCGTATTTGAG (site GTAGTCGCTCA) | 0.017 |
| GTAGTCGCATGGACCGGTTTTCCCGGTAATCCGTATTTGAG (site GTAGTCGCTCC) | 0.924 |
| GTAGTCGCATGGACCGGTTTTCCCGGTAATCCGTATTTGAG (site GTAGTCGCTCG) | 0.73 |
| GTAGTCGCATGGACCGGTTTTCCCGGTAATCCGTATTTGAG (site GTAGTCGCTCT) | 1.5 |
| GTAGTCGCATGGACCGGTTTTCCCGGTAATCCGTATTTGCA (site GTAGTCGCTAG) | 0.762 |
| GTAGTCGCATGGACCGGTTTTCCCGGTAATCCGTATTTGCA (site GTAGTCGCTCG) | 1.85 |
| GTAGTCGCATGGACCGGTTTTCCCGGTAATCCGTATTTGCA (site GTAGTCGCTGG) | 0.873 |
| GTAGTCGCATGGACCGGTTTTCCCGGTAATCCGTATTTGCA (site GTAGTCGCTTG) | 2.68 |
| GTAGTCGCATGGACCGGTTTTCCCGGTAATCCGTATTTGCC (site GTAGTCGCTAG) | 1.64 |
| GTAGTCGCATGGACCGGTTTTCCCGGTAATCCGTATTTGCC (site GTAGTCGCTCG) | 0.819 |
| GTAGTCGCATGGACCGGTTTTCCCGGTAATCCGTATTTGCC (site GTAGTCGCTGG) | 2.93 |
| GTAGTCGCATGGACCGGTTTTCCCGGTAATCCGTATTTGCC (site GTAGTCGCTTG) | 2.39 |
| GTAGTCGCATGGACCGGTTTTCCCGGTAATCCGTATTTGTG (site GTAGTCGCTCA) | 2.18 |
| GTAGTCGCATGGACCGGTTTTCCCGGTAATCCGTATTTGTG (site GTAGTCGCTCC) | 0.438 |
| GTAGTCGCATGGACCGGTTTTCCCGGTAATCCGTATTTGTG (site GTAGTCGCTCG) | 1.42 |
| GTAGTCGCATGGACCGGTTTTCCCGGTAATCCGTATTTGTG (site GTAGTCGCTCT) | 1.05 |
| GTAGTCTCATGGACCGGTTTTCCCGGTAATCCGTATTTGCG (site GTAGTCACTCG) | 1.31 |
| GTAGTCTCATGGACCGGTTTTCCCGGTAATCCGTATTTGCG (site GTAGTCCCTCG) | 1.12 |
| GTAGTCTCATGGACCGGTTTTCCCGGTAATCCGTATTTGCG (site GTAGTCGCTCG) | 0.176 |
| GTAGTCTCATGGACCGGTTTTCCCGGTAATCCGTATTTGCG (site GTAGTCTCTCG) | 3 |
| GTAGTTGCATGGACCGGTTTTCCCGGTAATCCGTATTTGCG (site GTAGTAGCTCG) | 2.05 |
| GTAGTTGCATGGACCGGTTTTCCCGGTAATCCGTATTTGCG (site GTAGTCGCTCG) | 1.78 |
| GTAGTTGCATGGACCGGTTTTCCCGGTAATCCGTATTTGCG (site GTAGTGGCTCG) | 0.373 |

| Sequence | recombinant UMI read abundance (log10) |
| --- | --- |
| GTAGTTGCATGGACCGGTTTTCCCGGTAATCCGTATTTGCG (site GTAGTTGCTCG) | 2.88 |
| GTATACACATGGACCGGTTTTCCCGGTAATCCGTATTTGTA (site GTATACACTTA) | 2.12 |
| GTATACACATGGACCGGTTTTCCCGGTAATCCGTATTTGTA (site GTATCCACTTA) | 0 |
| GTATACACATGGACCGGTTTTCCCGGTAATCCGTATTTGTA (site GTATGCACTTA) | 0.0117 |
| GTATACACATGGACCGGTTTTCCCGGTAATCCGTATTTGTA (site GTATTCACTTA) | 0.0042 |
| GTATAGACATGGACCGGTTTTCCCGGTAATCCGTATTTGCC (site GAATAGACTGG) | 2.37 |
| GTATAGACATGGACCGGTTTTCCCGGTAATCCGTATTTGCC (site GCATAGACTGG) | 2.19 |
| GTATAGACATGGACCGGTTTTCCCGGTAATCCGTATTTGCC (site GGATAGACTGG) | 0.251 |
| GTATAGACATGGACCGGTTTTCCCGGTAATCCGTATTTGCC (site GTATAGACTGG) | 2.83 |
| GTATATCCATGGACCGGTTTTCCCGGTAATCCGTATTTGGT (site GTATATCCTAC) | 1.08 |
| GTATCAACATGGACCGGTTTTCCCGGTAATCCGTATTTGAA (site GTATCAACTTT) | 1.01 |
| GTATCCACATGGACCGGTTTTCCCGGTAATCCGTATTTGTA (site GTATACACTTA) | 0.926 |
| GTATCCACATGGACCGGTTTTCCCGGTAATCCGTATTTGTA (site GTATCCACTTA) | 1.94 |
| GTATCCACATGGACCGGTTTTCCCGGTAATCCGTATTTGTA (site GTATGCACTTA) | 0.019 |
| GTATCCACATGGACCGGTTTTCCCGGTAATCCGTATTTGTA (site GTATTCACTTA) | 0.00595 |
| GTATGAACATGGACCGGTTTTCCCGGTAATCCGTATTTGTA (site GTATGAACTTA) | 2.42 |
| GTATGAACATGGACCGGTTTTCCCGGTAATCCGTATTTGTA (site GTATGCACTTA) | 0.00699 |
| GTATGAACATGGACCGGTTTTCCCGGTAATCCGTATTTGTA (site GTATGGACTTA) | 0.255 |
| GTATGAACATGGACCGGTTTTCCCGGTAATCCGTATTTGTA (site GTATGTACTTA) | 0 |
| GTATGATCATGGACCGGTTTTCCCGGTAATCCGTATTTGGG (site GTATGATCTCC) | 0.738 |
| GTATGCACATGGACCGGTTTTCCCGGTAATCCGTATTTGTG (site GTATGCACTAA) | 0.198 |
| GTATGCACATGGACCGGTTTTCCCGGTAATCCGTATTTGTG (site GTATGCACTCA) | 1.34 |
| GTATGCACATGGACCGGTTTTCCCGGTAATCCGTATTTGTG (site GTATGCACTGA) | 0.881 |
| GTATGCACATGGACCGGTTTTCCCGGTAATCCGTATTTGTG (site GTATGCACTTA) | 1.29 |
| GTATGCCCATGGACCGGTTTTCCCGGTAATCCGTATTTGTA (site GTATGCACTTA) | 0.0189 |

| Sequence | recombinant UMI read abundance (log10) |
| --- | --- |
| GTATGCCCATGGACCGGTTTTCCCGGTAATCCGTATTTGTA (site GTATGCCCTTA) | 0.172 |
| GTATGCCCATGGACCGGTTTTCCCGGTAATCCGTATTTGTA (site GTATGCGCTTA) | 0.0563 |
| GTATGCCCATGGACCGGTTTTCCCGGTAATCCGTATTTGTA (site GTATGCTCTTA) | 1.76 |
| GTATGCTCATGGACCGGTTTTCCCGGTAATCCGTATTTGTA (site GTATGCACTTA) | 0.29 |
| GTATGCTCATGGACCGGTTTTCCCGGTAATCCGTATTTGTA (site GTATGCCCTTA) | 1.2 |
| GTATGCTCATGGACCGGTTTTCCCGGTAATCCGTATTTGTA (site GTATGCGCTTA) | 0.0181 |
| GTATGCTCATGGACCGGTTTTCCCGGTAATCCGTATTTGTA (site GTATGCTCTTA) | 2.99 |
| GTATTCGCATGGACCGGTTTTCCCGGTAATCCGTATTTGCG (site GTAATCGCTCG) | 0.015 |
| GTATTCGCATGGACCGGTTTTCCCGGTAATCCGTATTTGCG (site GTACTCGCTCG) | 0.406 |
| GTATTCGCATGGACCGGTTTTCCCGGTAATCCGTATTTGCG (site GTAGTCGCTCG) | 0.00852 |
| GTATTCGCATGGACCGGTTTTCCCGGTAATCCGTATTTGCG (site GTATTCGCTCG) | 0.984 |
| GTCAATCCATGGACCGGTTTTCCCGGTAATCCGTATTTGAA (site GACAATCCTTT) | 0 |
| GTCAATCCATGGACCGGTTTTCCCGGTAATCCGTATTTGAA (site GCCAATCCTTT) | 0.306 |
| GTCAATCCATGGACCGGTTTTCCCGGTAATCCGTATTTGAA (site GGCAATCCTTT) | 0.51 |
| GTCAATCCATGGACCGGTTTTCCCGGTAATCCGTATTTGAA (site GTCAATCCTTT) | 1.07 |
| GTCACCCCATGGACCGGTTTTCCCGGTAATCCGTATTTGGT (site GTCACCCCTAC) | 0.425 |
| GTCACGACATGGACCGGTTTTCCCGGTAATCCGTATTTGAT (site GTCACGACTAT) | 1.77 |
| GTCACGACATGGACCGGTTTTCCCGGTAATCCGTATTTGGC (site GTCACGACTGC) | 1.65 |
| GTCATATCATGGACCGGTTTTCCCGGTAATCCGTATTTGTG (site GTCATATCTCA) | 2.31 |
| GTCCATGCATGGACCGGTTTTCCCGGTAATCCGTATTTGGT (site GTACATGCTAC) | 0.0101 |
| GTCCATGCATGGACCGGTTTTCCCGGTAATCCGTATTTGGT (site GTCCATGCTAC) | 0.891 |
| GTCCATGCATGGACCGGTTTTCCCGGTAATCCGTATTTGGT (site GTGCATGCTAC) | 0.0138 |
| GTCCATGCATGGACCGGTTTTCCCGGTAATCCGTATTTGGT (site GTTCATGCTAC) | 0.00783 |
| GTCCCCACATGGACCGGTTTTCCCGGTAATCCGTATTTGCC (site GTCCCCACTGG) | 2.05 |
| GTCCCGACATGGACCGGTTTTCCCGGTAATCCGTATTTGCA (site GTCCCGACTTG) | 1.54 |
